The values below come from publication PMC6104039 (Nature Communications, 2018).

The experiment relates to soleus muscle strips. As to the kind of experiment: Palmitate oxidation in soleus muscle strips pre-treated in vitro. Also noted: species or system mice. Particulars: 1.5 h in vitro, 1 μM. The procedure:
After a 30 min pre-incubation, muscles were transferred into vials containing 0.5 mCi/mL of [1-^14C]-palmitate in modified Krebs-Henseleit buffer for another 1 h. The reaction was stopped by removal of the muscles and addition of 1 M perchloric acid to the reaction mixture. ^14C-labelled CO2 was quantified as described above. The muscles were blotted dry and snap frozen in liquid nitrogen for subsequent lipid extraction and TLC. Muscles were homogenized using a Polytron (Kinematica, Littau-Lucerne, Switzerland) in 1.5 mL 2:1 chloroform-methanol (v/v). […] The upper aqueous phase was used to quantify ASM, and the lower organic phase was collected and dried under stream of N2, then reconstituted in hexane and spotted on a Silica Gel 60 F254 TLC plate. The TLC plate was developed in hexane/diethyl ether/glacial acetic acid (85:15:1), then air dried. TAG bands were visualised using iodine vapour staining, using an external standard to mark their position, then scraped into vials and quantified by liquid scintillation counting.

For the compound `C[C@@](N)(CO)CCc1ccc(OCc2ccc(Cl)c(Cl)c2)cc1` [P053, (S)-2-amino-4-(4-(3,4-dichlorobenzyloxy)phenyl)-2-methylbutan-1-ol], the palmitate oxidation result was “not affected”.
